The text below walks through data of patent US4259337A, “Method for using m-trifluoromethylphenyl-piperidines” (Roussel Uclaf, priority 1976, dated 1981).

Where a name gives a salt, the structure may show the parent alone.

The subject of series [1] is catalepsy provoked by prochlorpemazine. The series can be described thus: Antagonism of catalepsy provoked by prochlorpemazine. It is filed as in vivo. Also on record: key to Antagonism of catalepsy provoked by prochloropemazine for a determined dose in mg/kg: evaluated at the height of the effect was expressed by an increasing number of + signs for a given dose; ++: evaluated at the height of the effect was expressed by an increasing number of + signs for a given dose; +++: evaluated at the height of the effect was expressed by an increasing number of + signs for a given dose. Conditions: rats; for Antagonism of catalepsy provoked by prochloropemazine for a determined dose in mg/kg: prochlorpemazine 15 mg/kg i.p.; for antagonism toward the cataleptigenic activity of prochlorpemazine: in words, i.p. On the procedure: The tests are carried out on groups of 5 young rats weighing about 100 g and the cataleptigenic agent used is prochlorpemazine at a dose of 15 mg/kg intraperitoneally. The product studied was administered simultaneously in the same way. The intensity of the catalepsy was evaluated by the test of crossing of the homolateral paws [BOISSIER et al, Therapie, Vol. 18 (1963), p. 1257] every hour for 7 hours. The rating adopted is the following: the animal refuses the crossing of the front paws with the homolateral rear paws (0), he retains the desired crossing on one side only (0.5), he accepts the crossing on both sides (1). The sum of the scores by groups read at different periods after the administration of the product studied is determined. The antagonism of catalepsy provoked by prochlorpemazine evaluated at the height of the effect was expressed by an increasing number of + signs for a given dose and the results are reported in Table II.

In series [2] the test system is dog. Kind of series: Anorexigenic activity in the dog. It is filed as in vivo. The conditions noted are these: administered in the first ball, 7 hours. As to the method: The anorexigenic activity was studied on the dog using the method of ADAMS et al [J. Pharm. Sci., Vol. 53 (1964), p. 1405]. On the day of the test of a substance presumed to be anorexigenic, the individual daily ration of the animals was broken down into substantially equal balls (10 to 20 g) which were offered to the dogs every 10 minutes for 7 hours. Normally, the animals regularly accept the successive balls offered to them. Refusal translates the anorexiant effectiveness of the compound studied which was administered in the first ball. The anorexigenic activity was expressed by an increasing number of + signs for a given dose expresses in mg/kg.

For series [3], the system named is mice. The series can be described thus: Anorexigenic activity in mice. It is filed as in vivo. Conditions: 20 mg/kg i.p., food intake over following 24 hours. As to the method:
The anorexigenic activity was studied with mice and the animals receive the product studied intraperitoneally 30 minutes before the start of the test. The quantities of nourishment absorbed in the course of the following 24 hours was noted and compared with the quantity of nourishment absorbed in the course of the same period by animals not receiving the product studied. The anorexigenic activity was expressed by an increasing number of + signs for a given dose expressed in mg/kg.

The nature of series [4]: Acute toxicity. Conditions: mouse, in vivo, ip; mice, intraperitoneal, 48 hours after administration. On the procedure: The LD50, the dose at which 50% of the mice died after the intraperitoneal administration of the products to mice was determined 48 hours after the administration.
Series [5] relates to rigidity provoked by reserpine. The series can be described thus: Antagonism with respect to reserpinic rigidity. It is filed as in vivo. Also on record: key to Antagonism to reserpinic rigidity for a determined dose in mg/kg: ++: It was expressed by an increasing number of + signs for a given dose expressed in mg/kg. The conditions noted are these: rat; for Antagonism to reserpinic rigidity for a determined dose in mg/kg: reserpine 10 mg/kg i.v., E.M.G. On the procedure: The antagonism of the compounds with respect to reserpinic rigidity [Jurna I: Arch. Pharmak. Exp. Path. Vol. 260 (1968), p. 80-88] was studied on the rat. The tests consisted of recording, by means of electrodes placed on the muscles of the anterior cavity of one of the rear paws of the animal, the electromyogram (E.M.G.) provoked by a dorsiflection of the instep. A dose of 10 mg/kg of reserpine was administered intraveneously, then, one half hour later when the hypertonicity of the muscle was maximal, the product to be studied was administered in the same way at a dose of 10 mg/kg or of 20 mg/kg.
The electromyographic responses obtained before and after treatment, were compared in intensity and in time. The inhibition observed on the electromyogram expressed the antagonism exercised by the product with respect to the rigidity provoked by reserpine. It was expressed by an increasing number of + signs for a given dose expressed in mg/kg.

Series [6] has as its system stereotypies provoked by dexamphetamine. Kind of series: Potentiation of stereotypies provoked by dexamphetamine. The conditions noted are these: rats; for Potentiation of stereotypies provoked by dexamphetamine for a determined dose in mg/kg: dexamphetamine sulfate 3 mg/kg i.p. The class given is in vivo. Also noted: Potentiation of stereotypies provoked by dexamphetamine for a determined dose in mg/kg: key to the marks not given beside the values. As to the method:
Each animal was placed individually in a grilled cage (29×25 ×17 cm) containing a few wood shavings. A does of 3 mg/kg of dexamphetamine sulfate was injected intraperitoneally one half hour after the intraperitoneal administration of the product studied. The behavior of the animals was noted every half hour for 5 hours with the rating recommended by […] et al [Brit. J. Pharmacol., Vol. 23 (1964), p. 330-350]. The animalis asleep (0), he is awake but immobile (1), he is turning in his cage (2), he is sniffing the lid (3), he is licking the sides (4), he is touching the shavings or the bars of the cage with his teeth (5), he is biting the chips or bars of the cage (6). The total of the scores per group at different periods after the administration of the product studied was determined and the potentiation of the stereotypies evaluated at the height of the effect is expressed by an increasing number of + signs for a given dose.

Broadly, the LD50 is the dose at which mortality reaches 50%. Consider `CC(C)N1CCCC(c2cccc(C(F)(F)F)c2)C1.Cl` (stereo not drawn) [Example 4, N-isopropyl-3-(m-trifluoromethylphenyl)-piperidine hydrochloride], for which the “Antagonism of catalepsy provoked by prochloropemazine for a determined dose in mg/kg” value (“Antagonism of catalepsy provoked” for short) in series [1] (50 mg/kg i.p.) is reported as “+++”. Further, the “antagonism toward the cataleptigenic activity of prochlorpemazine” value in series [1] is given as “substantial antagonism”. Also, the anorexigenic activity result in series [2] (25 mg/kg) and in series [3] was “+” throughout. The compound further came in with an LD50 at 48 h in series [4] of about 100 mg/kg. The “Antagonism to reserpinic rigidity for a determined dose in mg/kg” value (“Antagonism to reserpinic rigidity … in mg/kg” for short) in series [5] (10 mg/kg i.v.) is “++”. Further, the “Antagonism to reserpinic rigidity” value in series [5] (in words, i.v.) is given as “very high activity”. The “Potentiation of stereotypies provoked by dexamphetamine for a determined dose in mg/kg” value (“Potentiation of stereotypies provoked … in mg/kg” for short) in series [6] (0.2 mg/kg i.p.) is reported as “+++”. Further, the “activity of potentiation of stereotypies provoked by dexamphetamine” value in series [6] (in words, i.p.) is “very high activity”.

On to `CN1CCCC(c2cccc(C(F)(F)F)c2)C1.Cl` (stereo not drawn) [Example 3, N-methyl-3-(m-trifluoromethylphenyl)-piperidine hydrochloride], for which the “Antagonism of catalepsy provoked” value in series [1] (20 mg/kg i.p.) is given as “+”. Moreover, the LD50 at 48 h in series [4] is about 100 mg/kg. The “Antagonism to reserpinic rigidity … in mg/kg” value in series [5] (20 mg/kg i.v.) is recorded as “++”. Besides, the “Potentiation of stereotypies provoked … in mg/kg” value in series [6] (2 mg/kg i.p.) is given as “++”.

As to `FC(F)(F)c1cccc(C2CCCN(Cc3ccccc3)C2)c1` (stereo not drawn) [Example 6, N-benzyl-3-(m-trifluoromethylphenyl)-piperidine hydrochloride], the LD50 at 48 h in series [4] is about 150 mg/kg. In series [6] (20 mg/kg i.p.), the “Potentiation of stereotypies provoked … in mg/kg” value is “++”.

Turning to `Cl.FC(F)(F)c1cccc(C2CCCNC2)c1` (stereo not drawn) [Example 1, 3-(m-trifluoromethylphenyl)-piperidine hydrochloride], the “Antagonism of catalepsy provoked” value in series [1] (20 mg/kg i.p.) is “++”. In addition, the “antagonism toward the cataleptigenic activity of prochlorpemazine” value in series [1] is “substantial antagonism”. For the same compound, the anorexigenic activity entry in series [2] (20 mg/kg) and in series [3] was “+” each time. In series [4], this compound gave an LD50 at 48 h of about 150 mg/kg. For the same compound, in series [5] (20 mg/kg i.v.), the “Antagonism to reserpinic rigidity … in mg/kg” value is on record as “++”.
